Structures are written as SMILES.

Data on 3 compounds can be found in patent publication US7009045B2 (priority 2000, dated 2006).

Common to all, as to format: cell-based
Assay [1] has as its system Candida famata regulatory mutants able to overproduce riboflavin. Nature of the assay: Sensitivity to Co^+2 ions, solid Burkholder medium (Table 16). Set-up: key: +++: strong growth; ++: weak growth; +: very weak growth; —: absence of growth. The procedure:
(§1) The sensitivity of the regulatory mutants of the yeast C. famata which overproduce riboflavin in iron rich medium probably due to defects in genes regulating repression (repression mutants), to different ions of heavy metals was studied. For this, the analyzed strains were streaked on the YPD plates and then were replica-plated on Burkholder synthetic medium containing leucine (40 μg/ml). The C.famata mutants L20105-40-1-11, L20105-40-1-17, L20105-3-2-1, L20105-3-2-8 and L20105-3-2-12 (all contained leu2 marker) accumulated 80–100 μg riboflavin/ml. The mutants #75, 4-48, 2-5 produced much higher amounts of riboflavin (200–250 μg/ml) but were prototrophs for leucine synthesis. Strain #75 was characterized by retarded growth comparing with other mutants. The strains VKM Y-9 (wild type) and L20105 (leu2) were used as the control strains.

For assay [2] the test system is unchanged. The assay can be described thus: Sensitivity to copper ions, solid Burkholder medium (Table 12). The procedure: as §1
Mutants overproducing lower amounts of riboflavin appeared to be more sensitive to CuSO4 (0.15 mM) than that of the strains producing higher amounts of riboflavin (inhibitory concentration 0.5 mM) (Table 12).

The subject of assay [3] is Pichia guilliermondii wild type and regulatory mutants (rib81). The assay can be described thus: Sensitivity after electroporation to K2Cr2O7, Burkholder medium with 0.3 M sucrose (Table 22). Set-up: key: +++: strong growth; ++: weak growth; —: absence of growth.
Assay [4] relates to Candida famata regulatory mutants able to overproduce riboflavin. Nature of the assay: Sensitivity to K2Cr2O7, solid Burkholder medium with 0.5% glycerol (Table 14). The procedure:
as §1

The subject of assay [5] is Pichia guilliermondii wild type and regulatory mutants (rib81). Nature of the assay: Sensitivity after electroporation to K2Cr2O7, Burkholder medium with 0.3 M sucrose (Table 22). As to conditions: Cr^+6 100 to 600 μM.

For the compound `[Cl-].[Cl-].[Co+2]` [CoCl2], the growth result is listed as “+” in assay [1] (#2-5, Co^+2 3.75 μg/ml); “+” in assay [1] (#75, Co^+2 2.5 μg/ml); “+” in assay [1] (L20105-3-2-1, Co^+2 3.75 μg/ml); “+” in assay [1] (L20105-3-2-8, Co^+2 3.75 μg/ml); “+” in assay [1] (L20105-3-2-8, Co^+2 5.0 μg/ml); “+” in assay [1] (L20105-3-2-9, Co^+2 3.75 μg/ml). In addition, the growth entry in assay [1] (L20105-3-2-12, Co^+2 3.75 μg/ml) is recorded as “+”; in assay [1] (L20105-3-2-12, Co^+2 5.0 μg/ml), “+”; in assay [1] (L20105-40-1-11, Co^+2 3.75 μg/ml), “+”.

Regarding `O=S(=O)([O-])[O-].[Cu+2]` [CuSO4], in assay [2], the “inhibitory concentration, mutants overproducing lower amounts of riboflavin” value is listed as 0.15 mM and the “inhibitory concentration, strains producing higher amounts of riboflavin” value worked out at 0.5 mM.

Turning to `[K+].[K+].[O]=[Cr](=[O])([O-])[O][Cr](=[O])(=[O])[O-]` [K2Cr2O7], the growth result is “+++” in assay [3] (#9-20 (leu2), K2Cr2O7 100 μM); “+++” in assay [3] (#9-20 (leu2), K2Cr2O7 150 μM); “+++” in assay [3] (#9-20 (leu2), K2Cr2O7 200 μM); “+++” in assay [3] (#9-20 (leu2), K2Cr2O7 250 μM); “+++” in assay [3] (#9-20 (leu2), K2Cr2O7 300 μM); “+++” in assay [3] (#9-20 (leu2), K2Cr2O7 350 μM). For the same compound, the growth entry in assay [3] (#9-20 (leu2), K2Cr2O7 450 μM) is “—”; in assay [3] (#9-20 (leu2), K2Cr2O7 500 μM), “—”; in assay [3] (#9-20 (leu2), K2Cr2O7 550 μM), “—”; in assay [3] (#9-20 (leu2), K2Cr2O7 600 μM), “—”; in assay [3] (ATCC9058, K2Cr2O7 100 μM), “+++”; in assay [3] (ATCC9058, K2Cr2O7 150 μM) it was “+++”. Besides, the growth result in assay [3] (ATCC9058, K2Cr2O7 200 μM) is on record as “+++”; in assay [3] (ATCC9058, K2Cr2O7 250 μM), “+++”; in assay [3] (ATCC9058, K2Cr2O7 300 μM), “+++”; in assay [3] (ATCC9058, K2Cr2O7 350 μM), “+++”; in assay [3] (ATCC9058, K2Cr2O7 450 μM), “—”; in assay [3] (ATCC9058, K2Cr2O7 500 μM) it was “—”. Further, the growth result was “—” in assay [3] (ATCC9058, K2Cr2O7 550 μM) and “—” in assay [3] (ATCC9058, K2Cr2O7 600 μM). Moreover, the “concentration inhibiting growth of weaker overproducers” value in assay [4] worked out at 50 µM. The “difference in sensitivity between regulatory mutants and the wild type” value in assay [5] is “no differences in sensitivity”.
